Data from patent publication US20250235451A1, “Methods of Delaying Pain Progression And Treating Prostate Cancer” (ASTRAZENECA AB, priority 2020, published 2025).

Tests used:
[1] = tested on: metastatic castration-resistant prostate cancer (mCRPC) with a qualifying alteration in any of 15 prespecified HRR genes; assay: Phase III trial NCT02987543, efficacy in the overall population (Cohorts A + B); assay type: in vivo, human
From the text: (§1) Patient population. In clinical trial NCT02987543, eligible patients were male, aged ≥18 years with histological diagnosis of prostate cancer, confirmed mCRPC, whose disease had progressed after one or more treatments with new hormonal agent (NHA) (e.g., enzalutamide or abiraterone, administered for metastatic or non-metastatic castration-resistant prostate cancer, as well as metastatic hormone-sensitive prostate cancer). Prior taxane chemotherapy was allowed. Men without prior surgical castration were required to continue luteinizing-hormone-releasing hormone analog therapy. Patients had adequate organ and bone marrow function. Full eligibility criteria are provided in the trial protocol. All patients provided written informed consent. An investigational clinical trial assay, based on the FoundationOne® CDx next-generation sequencing test was used to prospectively identify patients with qualifying deleterious or suspected deleterious alterations in one or more of the 15 prespecified genes selected for their direct or indirect role in HRR: BRCA1, BRCA2, ATM, BRIP1, BARD1, CDK12, CHEK1, CHEK2, FANCL, PALB2, PPP2R2A, RAD51B, RAD51C, RAD51D, and RAD54L. Tumor testing was conducted centrally using archival or recent biopsy tissue from primary or metastatic disease. Presence of deleterious or suspected deleterious alteration by the central tumor test was required for eligibility, irrespective of the zygosity of the alteration.
(§2) Study design. This was a prospective, randomized, open-label, Phase III study. Eligible patients were included in one of two cohorts depending on their qualifying gene alteration. Cohort A included patients with BRCA1, BRCA2 and/or ATM alterations, regardless of co-occurring qualifying alterations in any of the other genes. Cohort B included patients with alterations in any of the other 12 genes. The overall population comprised patients from Cohort A and Cohort B (i.e., patients with a qualifying alteration in any of the 15 prespecified genes).
(§3) Randomization was stratified by previous taxane use (yes/no) and measurable disease (yes/no). Treatment was continued until objective radiographic disease progression assessed by a third-party vendor blinded independent central review (BICR), or unacceptable toxicity. Patients randomized to the control arm were eligible to cross over to olaparib treatment upon BICR-confirmed radiographic progression.
(§4) The primary endpoint was rPFS assessed by BICR in patients with BRCA1, BRCA2, and/or ATM alterations (Cohort A). rPFS was defined as the time from randomization until soft-tissue disease progression (by Response Evaluation Criteria in Solid Tumors (RECIST) v1.1), bone lesion progression (by Prostate Cancer Working Group 3 (PCWG3) criteria) or death. A prespecified sensitivity analysis of rPFS based on investigator assessment was performed. rPFS by BICR in the overall population was also a secondary endpoint.
(§5) Additional secondary endpoints evaluated included confirmed radiographic objective response rate (ORR), time to pain progression (TTPP), overall survival (OS), prostate-specific antigen (PSA) response (PSA50 response) and circulating tumor cell (CTC) conversion rate. ORR was assessed among evaluable patients who had measurable disease at baseline as assessed by BICR using RECIST v1.1 (responses were also assessed by BICR using RECIST v1.1, were confirmed and required absence of progression on bone scan assessed by PCWG3). OS is defined as time from randomization to time point at which death due to any cause occurs. A pre-specified sensitivity analysis for the crossover effect on OS was performed. Safety was assessed in the overall population through reporting of Common Terminology Criteria for Adverse Events (CTCAE) v4.0 and collection of clinical chemistry and hematology parameters.
(§6) Time to pain progression (TTPP) was based on Brief Pain Inventory-Short Form item 3 ('worst pain in 24 hours) and initiation of opiate analgesic use (Analgesic Quantification Algorithm score). […]

[2] = tested on: metastatic castration-resistant prostate cancer (mCRPC) with BRCA1, BRCA2, and/or ATM alterations; assay: Phase III trial NCT02987543, efficacy in Cohort A (alterations in BRCA1, BRCA2 and/or ATM); assay type: in vivo, human
From the text: as §1, §2, §3, §4, §5, §6

[3] = Phase III trial NCT02987543, safety (adverse events, CTCAE v4.0) in the overall population; assay type: in vivo
Protocol: as §5
Blood samples for PSA assessments were collected at baseline, every 4 weeks until week 24, then every 8 weeks until study treatment discontinuation, and for CTC analyses were collected at baseline and then every 8 weeks until study treatment discontinuation. Overall survival was assessed every 12 weeks after progression. Adverse events (AEs) were graded according to the National Cancer Institute Common Terminology Criteria for Adverse Events version 4.0. […]
Statistical analysis. Efficacy data were analyzed on an intent-to-treat basis and safety data were reported for all patients who received ≥1 dose of trial treatment. […] For time-to-event endpoints, rPFS, time to pain progression, and OS, P-values were calculated using log-rank tests, stratified by stratification factors. […] The Kaplan-Meier method was used to calculate medians for each trial arm. Logistic regression models adjusted for stratification factors were used to analyze objective responses. A multiple-testing procedure was used to control for the study-wide type 1 error rate. […] For OS, the two-sided 5% level of alpha was split at the interim (0.01) and final (0.047) analyses using an O′Brien-Fleming spending function.

[4] = overall population, evaluable patients
[5] = overall population, olaparib vs control

Structure (SMILES): O=C(c1cc(Cc2n[nH]c(=O)c3ccccc23)ccc1F)N1CCN(C(=O)C2CC2)CC1 [Olaparib, 4-[(3-{[4-(cyclopropane-carbonyl)piperazine-1-yl]carbonyl}-4-fluorophenyl)methyl]-2H-phthalazin-1-one]
- Median TTPP (months), sensitivity analysis including any death as an event ([1]; Cohorts A + B (overall population)): 11.89 months
- TTPP Pain severity, Events (%) ([1]; overall population): 9.4%
- TTPP Pain severity, Events n ([1]; overall population): 24 n
- TTPP Worst pain, Events (%) ([1]; overall population): 12.5%
- TTPP Worst pain, Events n ([1]; overall population): 32 n
- Time to Opiate use, Events (%) ([1]; overall population): 37.1%
- Time to Opiate use, Events n ([1]; overall population): 65 n
- Time to Opiate use, Median (m) ([1]; overall population): 18.0 m
- median rPFS by BICR ([1]; overall population): 5.82 months
- TTPP Pain severity, 6-month rate (%) ([1]; overall population, 6 months): 88.7%
- TTPP Worst pain, 6-month rate (%) (free of pain progression) ([1]; overall population, 6 months): 85.2%
- Time to Opiate use, 6-month rate (%) ([1]; overall population, 6 months): 25%
- TTPP Pain severity, 12-month rate (%) ([1]; overall population, 12 months): 81.0%
- TTPP Worst pain, 12-month rate (%) ([1]; overall population, 12 months): 76.3%
- Time to Opiate use, 12-month rate (%) ([1]; overall population, 12 months): 41%
- Median OS at interim analysis ([1]; overall population, data maturity 41%): 17.51 months
- CTC conversion [1, 4]: 26.8%
- PSA50 response [1, 4]: 30.0%
- confirmed objective response rate [1, 4]: 21.7%
- TTPP Pain severity, HR [1, 5]: 0.71
- TTPP Worst pain, HR [1, 5]: 0.64
- Time to Opiate use, HR [1, 5]: 0.67
- median progression free survival greater than for subjects receiving the standard of care treatment ([1]; overall subject population): at least 2 months
- Median TTPP (months), sensitivity analysis including any death as an event [2]: 17.22 months
- median OS (interim analysis) ([2]; data maturity 38%): 18.50 months
- CTC conversion ([2]; evaluable patients): 29.9%
- PSA50 response ([2]; evaluable patients): 43.1%
- confirmed objective response rate ([2]; evaluable patients): 33.3%
- reduction in risk for disease progression or death ([2]; olaparib vs control): 66%
- median rPFS (radiographic progression-free survival) by BICR ([2]; primary endpoint): 7.39 months
- Anemia, All grades, (%) [3]: (46.5) %
- Anemia, Grade ≥3, (%) [3]: (21.5) %
- Any adverse event, All grades, (%) [3]: (95.3) %
- Any adverse event, Grade ≥3, (%) [3]: (50.8) %
- Arthralgia, All grades, (%) [3]: (9.4) %
- Arthralgia, Grade ≥3, (%) [3]: (0.4) %
- Back pain, All grades, (%) [3]: (13.7) %
- Back pain, Grade ≥3, (%) [3]: (0.8) %
- Cough, All grades, (%) [3]: (10.9) %
- Decreased appetite, All grades, (%) [3]: (30.1) %
- Decreased appetite, Grade ≥3, (%) [3]: (1.2) %
- Diarrhea, All grades, (%) [3]: (21.1) %
- Diarrhea, Grade ≥3, (%) [3]: (0.8) %
- Discontinuation of intervention due to adverse event, (%) [3]: (18.0) %
- Dose reduction due to adverse event, (%) [3]: (22.3) %
- Dyspnea, All grades, (%) [3]: (10.2) %
- Dyspnea, Grade ≥3, (%) [3]: (2.3) %
- Fatal adverse event, (%) [3]: (3.9) %
- Fatigue & asthenia, All grades, (%) [3]: (41.0) %
- Fatigue & asthenia, Grade ≥3, (%) [3]: (2.7) %
- Interruption of intervention due to adverse event, (%) [3]: (44.9) %
- Nausea, All grades, (%) [3]: (41.4) %
- Nausea, Grade ≥3, (%) [3]: (1.2) %
- Peripheral edema, All grades, (%) [3]: (12.5) %
- Urinary tract infection, All grades, (%) [3]: (7.0) %
- Urinary tract infection, Grade ≥3, (%) [3]: (1.6) %
- Vomiting, All grades, (%) [3]: (18.4) %
- Vomiting, Grade ≥3, (%) [3]: (2.3) %
- patients reporting new primary malignancies [3]: 1 n
- pulmonary embolism events, % [3]: 4.3%
- pulmonary embolism events, number ([3]; none were fatal): 11
